Measured values reported in patent publication US20240067693A1, “POLYPEPTIDES AND USES THEREOF” (MEDIMMUNE LIMITED, priority 2020, published 2024).
Numbered stars: 1 amine (or outer) side, 2 acyl side, 3 side chain; on linkers, the order of the positions; unused ones are H or OH. Bridge positions count the residues as written; N and C are the ends. Square brackets hold non-standard residues; d marks the D form. Side chains are listed from the residue outwards. Peptide text beside a SMILES is read from it. * marks the point of attachment. C18 diacid = O=C(O)CCCCCCCCCCCCCCCCC(=O)*; γGlu = O=C(O)[C@H](CCC(=O)[*:2])N[*:1]; αMeF = C[C@](N)(Cc1ccccc1)C(=O)O; Dab = NCC[C@H](N)C(=O)O; Aib = CC(C)(N)C(=O)O

Columns and labels:
[1] = biological target: T1, human calcitonin receptor (hCTR) (Homo sapiens, UniProt P30988); experiment: cAMP production in 1321N1 cells with stable recombinant expression of human calcitonin receptor (hCTR); assay type: cell-based; conditions: cAMP, 1321N1 cells, assay buffer with 0.1% BSA; read-out: EC50 (pM) hCTR
T1 construct: expressed in transfected cells
T1 sequence (P30988 25-474): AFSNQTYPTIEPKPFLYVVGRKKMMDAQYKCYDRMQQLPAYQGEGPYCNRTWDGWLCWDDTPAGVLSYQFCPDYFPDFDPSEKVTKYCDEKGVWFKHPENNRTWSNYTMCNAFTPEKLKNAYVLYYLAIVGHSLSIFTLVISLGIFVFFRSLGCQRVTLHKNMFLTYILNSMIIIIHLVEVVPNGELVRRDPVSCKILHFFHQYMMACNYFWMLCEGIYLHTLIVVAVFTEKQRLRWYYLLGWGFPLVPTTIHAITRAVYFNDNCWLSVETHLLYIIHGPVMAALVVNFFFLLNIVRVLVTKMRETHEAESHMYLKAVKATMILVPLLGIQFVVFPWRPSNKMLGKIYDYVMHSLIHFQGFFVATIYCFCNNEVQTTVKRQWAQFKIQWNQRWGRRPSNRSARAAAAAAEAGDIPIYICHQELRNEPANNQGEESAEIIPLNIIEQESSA
Outline: (§1)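 Thawed cells in HBSS/0.1% BSA/25 mM HEPES pH 7.4 with 0.5 mM IBMX were incubated with peptides 30 min at room temperature; cAMP read by HTRF. EC50 from 4-parameter fit of % activation relative to maximal amylin or calcitonin effect.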

[2] = biological target: T2, human amylin receptor (calcitonin receptor co-expressed with receptor activity modifying protein, RAMP3) (hAMYR3) (Homo sapiens, UniProt O60896+P30988); experiment: cAMP production in 1321N1 cells with stable recombinant expression of human amylin receptor (hAMYR3); assay type: cell-based; conditions: for Ratio (selectivity hAMYR vs hCTR, ratio of EC50 values at the two receptors): EC50 hCTR / EC50 hAMYR3; for EC50: cAMP, 1321N1 cells, assay buffer with 0.1% BSA, read-out: EC50 (pM) hAMYR3
T2 construct: expressed in transfected cells
T2 sequence (P30988 25-474): T1 sequence (P30988 25-474)
T2 sequence (O60896 24-148 partner): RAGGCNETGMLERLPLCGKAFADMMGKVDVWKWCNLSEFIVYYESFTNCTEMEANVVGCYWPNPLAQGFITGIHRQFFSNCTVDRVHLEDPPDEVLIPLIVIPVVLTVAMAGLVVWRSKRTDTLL
Outline: as §1

| EC50 [1] | Ratio (selectivity hAMYR vs hCTR, ratio of EC50 values at the two receptors) [2] | EC50 [2] | Structure (SMILES) |
| --- | --- | --- | --- |
| 1820 pM | 0.5 | 3800 pM | CC[C@H](C)[C@H](NC(=O)[C@@H]1CCCN1C(=O)CNC(=O)[C@H](Cc1ccccc1)NC(=O)[C@H](CC(N)=O)NC(=O)[C@H](CC(N)=O)NC(=O)[C@H](CO)NC(=O)[C@H](CO)NC(=O)[C@H](Cc1c[nH]cn1)NC(=O)C(C)(C)NC(=O)[C@H](CC(C)C)NC(=O)[C@H](Cc1ccccc1)NC(=O)[C@H](CC(N)=O)NC(=O)[C@H](C)NC(=O)[C@H](CC(C)C)NC(=O)[C@H](CCCNC(=N)N)NC(=O)[C@H](CCC(N)=O)NC(=O)[C@@H](NC(=O)[C@H](C)NC(=O)[C@@H]1CSSC[C@H](NC(=O)[C@H](CCCCN)NC(=O)[C@@H](N)CCCCNC(=O)CC[C@H](NC(=O)CCCCCCCCCCCCCCCCC(=O)O)C(=O)O)C(=O)N[C@@H](CC(N)=O)C(=O)N[C@@H]([C@@H](C)O)C(=O)N[C@@H](C)C(=O)N[C@@H]([C@@H](C)O)C(=O)N1)[C@@H](C)O)C(=O)N[C@@H](CC(C)C)C(=O)N1CCC[C@H]1C(=O)N1CCC[C@H]1C(=O)N[C@H](C(=O)N[C@@H](CC(N)=O)C(=O)NC(C)(C)C(=O)NCC(=O)N[C@@H](CO)C(=O)N[C@@H](CC(N)=O)C(=O)N[C@H](C(=O)N[C@@H](Cc1ccc(O)cc1)C(N)=O)[C@@H](C)O)[C@@H](C)O [Peptide 99, K(γE-C18diacid)K[CNTATC]ATQRLANFL(Aib)HSSNNFGPILPPTN(Aib)GSNTY-amide] (H-K([γGlu-C18 diacid])KCNTATCATQRLANFL[Aib]HSSNNFGPILPPTN[Aib]GSNTY-NH2; disulfide 3-8; N-terminus assumed) |
| 1880 pM | 4.5 | 417 pM | CC[C@H](C)[C@H](NC(=O)[C@@H]1CCCN1C(=O)CNC(=O)[C@H](Cc1ccccc1)NC(=O)[C@H](CC(N)=O)NC(=O)[C@H](CC(N)=O)NC(=O)[C@H](CO)NC(=O)[C@H](CO)NC(=O)[C@H](Cc1c[nH]cn1)NC(=O)C(C)(C)NC(=O)[C@H](CC(C)C)NC(=O)[C@H](Cc1ccccc1)NC(=O)[C@H](CC(N)=O)NC(=O)[C@H](C)NC(=O)[C@H](CC(C)C)NC(=O)[C@H](CCCNC(=N)N)NC(=O)[C@H](CCC(N)=O)NC(=O)[C@@H](NC(=O)[C@H](C)NC(=O)[C@@H]1CSSC[C@H](NC(=O)[C@H](CCCCN)NC(=O)[C@@H](N)CCCCNC(=O)CC[C@H](NC(=O)CCCCCCCCCCCCCCCCC(=O)O)C(=O)O)C(=O)N[C@@H](CC(N)=O)C(=O)N[C@@H]([C@@H](C)O)C(=O)N[C@@H](C)C(=O)N[C@@H]([C@@H](C)O)C(=O)N1)[C@@H](C)O)C(=O)N[C@@H](CC(C)C)C(=O)N1CCC[C@H]1C(=O)N1CCC[C@H]1C(=O)N[C@H](C(=O)N[C@@H](CC(N)=O)C(=O)N[C@H](C(=O)NCC(=O)N[C@@H](Cc1c[nH]cn1)C(=O)N[C@@H](CC(N)=O)C(=O)N[C@H](C(=O)N[C@@H](Cc1ccc(O)cc1)C(N)=O)[C@@H](C)O)C(C)C)[C@@H](C)O [Peptide 145] (H-K([γGlu-C18 diacid])KCNTATCATQRLANFL[Aib]HSSNNFGPILPPTNVGHNTY-NH2; disulfide 3-8; N-terminus assumed) |
| 1500 pM | 6.3 | 238 pM | CC[C@H](C)[C@H](NC(=O)[C@@H]1CCCN1C(=O)CNC(=O)[C@H](Cc1ccccc1)NC(=O)[C@H](CC(N)=O)NC(=O)[C@H](CCCNC(=N)N)NC(=O)[C@H](CO)NC(=O)[C@H](CO)NC(=O)[C@H](Cc1c[nH]cn1)NC(=O)C(C)(C)NC(=O)[C@H](CC(C)C)NC(=O)[C@H](Cc1ccccc1)NC(=O)[C@H](CC(N)=O)NC(=O)[C@H](C)NC(=O)[C@H](CC(C)C)NC(=O)[C@H](CCCNC(=N)N)NC(=O)[C@H](CCC(N)=O)NC(=O)[C@@H](NC(=O)[C@H](C)NC(=O)[C@@H]1CSSC[C@H](NC(=O)[C@H](CCCCN)NC(=O)[C@@H](N)CCCCNC(=O)CC[C@H](NC(=O)CCCCCCCCCCCCCCCCC(=O)O)C(=O)O)C(=O)N[C@@H](CC(N)=O)C(=O)N[C@@H]([C@@H](C)O)C(=O)N[C@@H](C)C(=O)N[C@@H]([C@@H](C)O)C(=O)N1)[C@@H](C)O)C(=O)N[C@@H](CC(C)C)C(=O)N1CCC[C@H]1C(=O)N1CCC[C@H]1C(=O)N[C@H](C(=O)N[C@@H](CC(N)=O)C(=O)N[C@H](C(=O)NCC(=O)N[C@@H](CO)C(=O)N[C@@H](CC(N)=O)C(=O)N[C@H](C(=O)N[C@@H](Cc1ccc(O)cc1)C(N)=O)[C@@H](C)O)C(C)C)[C@@H](C)O [Peptide 137] (H-K([γGlu-C18 diacid])KCNTATCATQRLANFL[Aib]HSSRNFGPILPPTNVGSNTY-NH2; disulfide 3-8; N-terminus assumed) |
| 1350 pM | 6 | 220 pM | CC[C@H](C)[C@H](NC(=O)[C@@H]1CCCN1C(=O)CNC(=O)[C@](C)(Cc1ccccc1)NC(=O)[C@H](CC(N)=O)NC(=O)[C@H](CC(N)=O)NC(=O)[C@H](CO)NC(=O)[C@H](CO)NC(=O)[C@H](Cc1c[nH]cn1)NC(=O)[C@@H](NC(=O)[C@H](CC(C)C)NC(=O)[C@H](Cc1ccccc1)NC(=O)[C@H](CC(N)=O)NC(=O)[C@H](C)NC(=O)[C@H](CC(C)C)NC(=O)[C@H](CCCNC(=N)N)NC(=O)[C@H](CCC(N)=O)NC(=O)[C@@H](NC(=O)[C@H](C)NC(=O)[C@@H]1CSSC[C@H](NC(=O)[C@H](CCCCN)NC(=O)[C@@H](N)CCCCNC(=O)CC[C@H](NC(=O)CCCCCCCCCCCCCCCCC(=O)O)C(=O)O)C(=O)N[C@@H](CC(N)=O)C(=O)N[C@@H]([C@@H](C)O)C(=O)N[C@@H](C)C(=O)N[C@@H]([C@@H](C)O)C(=O)N1)[C@@H](C)O)C(C)C)C(=O)N[C@@H](CC(C)C)C(=O)N1CCC[C@H]1C(=O)N1CCC[C@H]1C(=O)N[C@H](C(=O)N[C@@H](CC(N)=O)C(=O)N[C@H](C(=O)NCC(=O)N[C@@H](CO)C(=O)N[C@@H](CC(N)=O)C(=O)N[C@H](C(=O)N[C@@H](Cc1ccc(O)cc1)C(N)=O)[C@@H](C)O)C(C)C)[C@@H](C)O [Peptide 14, K(γE-C18diacid)K[CNTATC]ATQRLANFLVHSSNN(αMePhe)GPILPPTNVGSNTY-amide] (H-K([γGlu-C18 diacid])KCNTATCATQRLANFLVHSSNN[αMeF]GPILPPTNVGSNTY-NH2; disulfide 3-8; N-terminus assumed) |
| 10500 pM | 12 | 873 pM | CC[C@H](C)[C@H](NC(=O)[C@@H]1CCCN1C(=O)CNC(=O)[C@H](Cc1ccccc1)NC(=O)[C@H](CC(N)=O)NC(=O)[C@H](CCN)NC(=O)[C@H](CO)NC(=O)[C@H](CO)NC(=O)[C@H](Cc1c[nH]cn1)NC(=O)C(C)(C)NC(=O)[C@H](CC(C)C)NC(=O)[C@H](Cc1ccccc1)NC(=O)[C@H](CC(N)=O)NC(=O)[C@H](C)NC(=O)[C@H](CC(C)C)NC(=O)[C@H](CCCNC(=N)N)NC(=O)[C@H](CCC(N)=O)NC(=O)[C@@H](NC(=O)[C@H](C)NC(=O)[C@@H]1CSSC[C@H](NC(=O)[C@H](CCCCN)NC(=O)[C@@H](N)CCCCNC(=O)CC[C@H](NC(=O)CCCCCCCCCCCCCCCCC(=O)O)C(=O)O)C(=O)N[C@@H](CC(N)=O)C(=O)N[C@@H]([C@@H](C)O)C(=O)N[C@@H](C)C(=O)N[C@@H]([C@@H](C)O)C(=O)N1)[C@@H](C)O)C(=O)N[C@@H](CC(C)C)C(=O)N1CCC[C@H]1C(=O)N1CCC[C@H]1C(=O)N[C@H](C(=O)N[C@@H](CCC(=O)O)C(=O)N[C@H](C(=O)NCC(=O)N[C@@H](CO)C(=O)N[C@@H](CC(N)=O)C(=O)N[C@H](C(=O)N[C@@H](Cc1ccc(O)cc1)C(N)=O)[C@@H](C)O)C(C)C)[C@@H](C)O [Peptide 30, K(γE-C18diacid)K[CNTATC]ATQRLANFL(Aib)HSS(Dab)NFGPILPPTEVGSNTY-amide] (H-K([γGlu-C18 diacid])KCNTATCATQRLANFL[Aib]HSS[Dab]NFGPILPPTEVGSNTY-NH2; disulfide 3-8; N-terminus assumed) |
